Laboratory results as given in ChEMBL document CHEMBL5500336, “Recent advances in developing modified C14 side chain pleuromutilins as novel antibacterial agents” (Eur J Med Chem, 2024).
In brackets after ≈: the same amount, converted by molar mass. One block for each compound: values may come before it.

How the values were obtained:
[1] = tested on: Staphylococcus epidermidis; experiment: Antibacterial activity against methicillin-sensitive Staphylococcus epidermidis ATCC 12228 assessed as reduction in bacterial growth incubated for 18 hrs by agar dilution method; format: functional
[2] = tested on: Staphylococcus aureus; experiment: Antibacterial activity against Methicillin-sensitive Staphylococcus aureus assessed as bacterial growth inhibition; format: functional
[3] = tested on: Staphylococcus aureus; experiment: Antibacterial activity against Methicillin-resistant Staphylococcus aureus assessed as bacterial growth inhibition; format: functional
[4] = tested on: Staphylococcus epidermidis; experiment: Antibacterial activity against […] Staphylococcus epidermidis ATCC 35984 after 16 to 18 hrs by CLSI protocol based broth microdilution assay; format: functional; settings: time 16-18 hrs
[5] = tested on: Staphylococcus epidermidis; experiment: Antibacterial activity against […] Staphylococcus epidermidis ATCC 51625 assessed as inhibition of bacterial growth measured after 24 hrs by MH broth based assay; format: functional
[6] = tested on: Staphylococcus aureus; experiment: Antibacterial activity against […] Staphylococcus aureus BNCC 337371 assessed as bacterial growth inhibition incubated for 18 to 24 hrs by NCCLS based assay; format: functional; settings: time 18-24 hrs
[7] = tested on: Staphylococcus aureus; experiment: Antibacterial activity against […] Staphylococcus aureus ATCC 25923 assessed as reduction in bacterial growth measured after 24 hrs by MH broth based assay; format: functional
[8] = tested on: Escherichia coli; experiment: Antibacterial activity against Escherichia coli ATCC 25922 assessed as bacterial growth inhibition measured after 18 hrs by CLSI based method; format: functional
[9] = tested on: Staphylococcus aureus; experiment: Antimicrobial activity against […] Staphylococcus aureus ATCC 43300 assessed as inhibition of microbial growth measured after 20 to 24 hrs incubation by CLSI method; format: functional; settings: time 20-24 hrs
[10] = tested on: Staphylococcus aureus; experiment: Antimicrobial activity against […] Staphylococcus aureus ATCC 33591 assessed as inhibition of microbial growth measured after 20 to 24 hrs incubation by CLSI method; format: functional; settings: time 20-24 hrs
[11] = tested on: Streptococcus pneumoniae; experiment: Antibacterial activity against Streptococcus pneumoniae B1 assessed as reduction in bacterial growth; format: functional
[12] = tested on: Staphylococcus aureus; experiment: Antibacterial activity against […] Staphylococcus aureus ATCC 33592 assessed as bacterial growth inhibition; format: functional
[13] = tested on: Staphylococcus aureus; experiment: Antibacterial activity against […] Staphylococcus aureus ATCC 43300 assessed as reduction in microbial growth after 16 hrs by broth microdilution method; format: functional
[14] = tested on: Staphylococcus aureus; experiment: Antibacterial activity against […] Staphylococcus aureus ATCC 43300 assessed as inhibition of bacterial growth measured after 24 hrs by MH broth based assay; format: functional
[15] = tested on: Staphylococcus aureus; experiment: Antibacterial activity against […] Staphylococcus aureus ATCC 43300 assessed as inhibition of bacterial growth; format: functional
[16] = tested on: Staphylococcus aureus; experiment: Antibacterial activity against methicillin-sensitive Staphylococcus aureus assessed as reduction in microbial growth; format: functional
[17] = tested on: Staphylococcus aureus; experiment: Antibacterial activity against […] Staphylococcus aureus ATCC 43300 assessed as reduction in bacterial growth by CLSI protocol based broth microdilution method; format: functional
[18] = tested on: Staphylococcus aureus; experiment: Antimicrobial activity against […] Staphylococcus aureus ATCC 33591 assessed as reduction in microbial growth incubated for 24 hrs by CLSI protocol based analysis; format: functional
[19] = Cytotoxicity against mouse RAW264.7 cells assessed as reduction in cell viability incubated for 48 hrs by MTT assay; format: toxicity, cell-based
[20] = tested on: Staphylococcus aureus; experiment: Antimicrobial activity against methicillin-Staphylococcus aureus 29213 assessed as inhibition of microbial growth incubated for 24 hrs by broth-microdilution assay; format: functional
[21] = tested on: Staphylococcus aureus; experiment: Antibacterial activity against Staphylococcus aureus ATCC 25923 assessed as reduction in bacterial growth incubated for 24 hrs by serial dilution method; format: functional
[22] = tested on: Staphylococcus; experiment: Antimicrobial activity against methicillin-resistant coagulase negative Staphylococcus P1369 at 1 nmol relative to control; format: functional

SMILES: C=C[C@]1(C)C[C@@H](OC(=O)CSCc2csc(N)n2)[C@]2(C)[C@H](C)CC[C@]3(CCC(=O)[C@H]32)[C@@H](C)[C@@H]1O
MIC [1]: 0.063 µg/mL (≈ 0.124 µM)
MIC [2]: 0.063 µg/mL (≈ 0.124 µM)
MIC [3]: 0.063 µg/mL (≈ 0.124 µM)
MIC [4]: 0.063 µg/mL (≈ 0.124 µM)

SMILES: C=C[C@]1(C)C[C@@H](OC(=O)CSCc2csc(NC(=O)CN3CCCCC3)n2)[C@]2(C)[C@H](C)CC[C@]3(CCC(=O)[C@H]32)[C@@H](C)[C@@H]1O
MIC [1]: 0.063 µg/mL (≈ 0.0997 µM)
MIC [2]: 0.063 µg/mL (≈ 0.0997 µM)
MIC [3]: 0.063 µg/mL (≈ 0.0997 µM)
MIC [4]: 0.063 µg/mL (≈ 0.0997 µM)

SMILES: C=C[C@]1(C)C[C@@H](OC(=O)CSC2=NC(C)=C(C(=O)OCC)C(C)N2)[C@]2(C)[C@H](C)CC[C@]3(CCC(=O)[C@H]32)[C@@H](C)[C@@H]1O (some centres undefined)
MIC [5]: 0.06 µg/mL (≈ 0.104 µM)
MIC [6]: 0.06 µg/mL (≈ 0.104 µM)
MIC [7]: 0.125 µg/mL (≈ 0.217 µM)

SMILES: C=C[C@]1(C)C[C@@H](OC(=O)CSC2=NC(C)=C(C(=O)OC)C(C)N2)[C@]2(C)[C@H](C)CC[C@]3(CCC(=O)[C@H]32)[C@@H](C)[C@@H]1O (some centres undefined)
MIC [5]: 0.125 µg/mL (≈ 0.223 µM)
MIC [6]: 0.25 µg/mL (≈ 0.446 µM)
MIC [7]: 0.25 µg/mL (≈ 0.446 µM)

SMILES: C=C[C@]1(C)C[C@@H](OC(=O)CSC2=NC(C)=C(C(C)=O)C(C)N2)[C@]2(C)[C@H](C)CC[C@]3(CCC(=O)[C@H]32)[C@@H](C)[C@@H]1O (some centres undefined)
MIC [5]: 0.25 µg/mL (≈ 0.459 µM)
MIC [6]: 0.125 µg/mL (≈ 0.229 µM)
MIC [7]: 0.25 µg/mL (≈ 0.459 µM)

SMILES: C=C[C@]1(C)C[C@@H](OC(=O)CSc2nc(C)c(C(=O)OC)c(C)n2)[C@]2(C)[C@H](C)CC[C@]3(CCC(=O)[C@H]32)[C@@H](C)[C@@H]1O
MIC [5]: 0.03 µg/mL (≈ 0.0537 µM)
MIC [6]: 0.015 µg/mL (≈ 0.0268 µM)
MIC [7]: 0.016 µg/mL (≈ 0.0286 µM)

SMILES: C=C[C@]1(C)C[C@@H](OC(=O)CSc2nc(C)c(C(=O)OCC)c(C)n2)[C@]2(C)[C@H](C)CC[C@]3(CCC(=O)[C@H]32)[C@@H](C)[C@@H]1O
MIC [5]: 0.015 µg/mL (≈ 0.0262 µM)
MIC [6]: 0.015 µg/mL (≈ 0.0262 µM)
MIC [7]: ≤ 0.016 µg/mL

SMILES: C=C[C@]1(C)C[C@@H](OC(=O)CSc2nc(C)c(C(C)=O)c(C)n2)[C@]2(C)[C@H](C)CC[C@]3(CCC(=O)[C@H]32)[C@@H](C)[C@@H]1O
MIC [5]: 0.03 µg/mL (≈ 0.0553 µM)
MIC [6]: 0.015 µg/mL (≈ 0.0276 µM)
MIC [7]: 0.016 µg/mL (≈ 0.0295 µM)

SMILES: C=C[C@]1(C)C[C@@H](OC(=O)CN2CCN(c3ccc(C4CC(c5ccccc5[N+](=O)[O-])=NN4)cc3)CC2)[C@]2(C)[C@H](C)CC[C@]3(CCC(=O)[C@H]32)[C@@H](C)[C@@H]1O (some centres undefined)
MIC [8]: 2 µg/mL (≈ 2.81 µM)
MIC [9]: 2 µg/mL
MIC [10]: 2 µg/mL

SMILES: C=C[C@]1(C)C[C@@H](OC(=O)CN2CCN(c3ccc(C(=O)/C=C/c4ccc([N+](=O)[O-])cc4)cc3)CC2)[C@]2(C)[C@H](C)CC[C@]3(CCC(=O)[C@H]32)[C@@H](C)[C@@H]1O
MIC [9]: 0.5 µg/mL
MIC [10]: 0.5 µg/mL

SMILES: C=C[C@]1(C)C[C@@H](OC(=O)CN2CCN(c3ccc(C(=O)/C=C/c4ccc(N)cc4)cc3)CC2)[C@]2(C)[C@H](C)CC[C@]3(CCC(=O)[C@H]32)[C@@H](C)[C@@H]1O
MIC [9]: 0.5 µg/mL
MIC [10]: 0.5 µg/mL

SMILES: C=C[C@]1(C)C[C@@H](OC(=O)CSc2ccccc2N)[C@]2(C)[C@H](C)CC[C@]3(CCC(=O)[C@H]32)[C@@H](C)[C@@H]1O
MIC [11]: 0.016 µg/mL (≈ 0.0329 µM)
MIC [12]: 0.5 µg/mL (≈ 1.03 µM)
MIC [13]: 0.016 µg/mL

SMILES: C=C[C@]1(C)C[C@@H](OC(=O)CSc2ccc(NC(=O)c3ccco3)cc2)[C@]2(C)[C@H](C)CC[C@]3(CCC(=O)[C@H]32)[C@@H](C)[C@@H]1O
MBC [14]: 0.03 µg/mL (≈ 0.0517 µM)
MIC [15]: 0.015 µg/mL (≈ 0.0259 µM)

MIC [16]: 0.06 µg/mL
SMILES: C=C[C@]1(C)C[C@@H](OC(=O)CSc2cccc(NC(=O)Nc3ccc(C#N)cc3)c2)[C@]2(C)[C@H](C)CC[C@]3(CCC(=O)[C@H]32)[C@@H](C)[C@@H]1O

SMILES: C=C[C@]1(C)C[C@@H](OC(=O)CSCc2csc(NC(=O)CN3CCC[C@@H]3CO)n2)[C@]2(C)[C@H](C)CC[C@]3(CCC(=O)[C@H]32)[C@@H](C)[C@@H]1O
MIC [1]: 0.063 µg/mL (≈ 0.0972 µM)
MIC [2]: 0.063 µg/mL (≈ 0.0972 µM)
MIC [17]: 0.063 µg/mL (≈ 0.0972 µM)
MIC [3]: 0.063 µg/mL (≈ 0.0972 µM)
MIC [4]: 0.063 µg/mL (≈ 0.0972 µM)

SMILES: C=C[C@]1(C)C[C@@H](OC(=O)CSc2ccccc2NC(=O)c2cccc(F)c2)[C@]2(C)[C@H](C)CC[C@]3(CCC(=O)[C@H]32)[C@@H](C)[C@@H]1O
MIC [13]: 0.125 µg/mL

SMILES: C=C[C@]1(C)C[C@@H](OC(=O)CSc2ccc(NC(=O)c3cccc(F)c3)cc2)[C@]2(C)[C@H](C)CC[C@]3(CCC(=O)[C@H]32)[C@@H](C)[C@@H]1O
MBC [14]: 0.03 µg/mL (≈ 0.0494 µM)
MIC [15]: 0.03 µg/mL (≈ 0.0494 µM)

SMILES: C=C[C@]1(C)C[C@@H](OC(=O)CSc2nc3c(F)cccc3o2)[C@]2(C)[C@H](C)CC[C@]3(CCC(=O)[C@H]32)[C@@H](C)[C@@H]1O
MIC [18]: 0.125 µg/mL

SMILES: C=C[C@]1(C)C[C@@H](OC(=O)CSc2ccc(NC(=O)c3ccc(C#N)cc3)cc2)[C@]2(C)[C@H](C)CC[C@]3(CCC(=O)[C@H]32)[C@@H](C)[C@@H]1O
MBC [14]: 0.03 µg/mL (≈ 0.0488 µM)
MIC [15]: 0.015 µg/mL (≈ 0.0244 µM)

SMILES: C=C[C@]1(C)C[C@@H](OC(=O)CSc2ccc(NC(=O)c3ccccc3F)cc2)[C@]2(C)[C@H](C)CC[C@]3(CCC(=O)[C@H]32)[C@@H](C)[C@@H]1O
MBC [14]: 0.062 µg/mL (≈ 0.102 µM)
MIC [15]: 0.03 µg/mL (≈ 0.0494 µM)

MIC [20]: 0.125 µg/mL
SMILES: C=C[C@]1(C)C[C@@H](OC(=O)CSc2nnc(-c3cccs3)o2)[C@]2(C)[C@H](C)CC[C@]3(CCC(=O)[C@H]32)[C@@H](C)[C@@H]1O
IC50 at 48 h [19]: 17.9 µg/mL (≈ 32.8 µM)

SMILES: C=C[C@]1(C)C[C@@H](OC(=O)CSc2ccc(NC(=O)c3ccc(F)cc3)cc2)[C@]2(C)[C@H](C)CC[C@]3(CCC(=O)[C@H]32)[C@@H](C)[C@@H]1O
MBC [14]: 0.03 µg/mL (≈ 0.0494 µM)
MIC [15]: 0.03 µg/mL (≈ 0.0494 µM)

MIC [21]: 0.008 µg/mL (≈ 0.0112 µM)
SMILES: C=C[C@]1(C)C[C@@H](OC(=O)CN2CCN(C(=O)CNC[C@H]3CN(c4ccc(Cl)cc4)C(=O)O3)CC2)[C@]2(C)[C@H](C)CC[C@]3(CCC(=O)[C@H]32)[C@@H](C)[C@@H]1O

SMILES: C=C[C@]1(C)C[C@@H](OC(=O)CSc2ccccc2NC(=O)c2ccccc2C)[C@]2(C)[C@H](C)CC[C@]3(CCC(=O)[C@H]32)[C@@H](C)[C@@H]1O
MIC [13]: 0.25 µg/mL

SMILES: C=C[C@]1(C)C[C@@H](OC(=O)CSc2ccc(NC(=O)c3cccs3)cc2)[C@]2(C)[C@H](C)CC[C@]3(CCC(=O)[C@H]32)[C@@H](C)[C@@H]1O
MBC [14]: 0.03 µg/mL (≈ 0.0504 µM)
MIC [15]: 0.03 µg/mL (≈ 0.0504 µM)

SMILES: C=C[C@]1(C)C[C@@H](OC(=O)CN2CCN(c3ccc(C4CC(N)=NC=C4c4ccccc4[N+](=O)[O-])cc3)CC2)[C@]2(C)[C@H](C)CC[C@]3(CCC(=O)[C@H]32)[C@@H](C)[C@@H]1O (some centres undefined)
MIC [8]: 8 µg/mL (≈ 10.8 µM)
MIC [9]: 1 µg/mL
MIC [10]: 1 µg/mL

SMILES: C=C[C@]1(C)C[C@@H](OC(=O)CS[C@@H]2CC[C@@H](N)C[C@H]2O)[C@]2(C)[C@H](C)CC[C@]3(CCC(=O)[C@H]32)[C@@H](C)[C@@H]1O [LEFAMULIN]
Activity [22]: 3.4%
